# Measured values taken from patent US20240041991A1, “STABLE LIQUID DISPERSINB COMPOSITIONS” (KANE BIOTECH INC., priority 2020, published 2024).
# Like-named read-outs stand apart in the source and are kept apart here. Marks after values point to notes of the source that are not given here.
# Tested on: DispersinB
# Format: biochemical, Aggregatibacter actinomycetemcomitans
# Conditions: polyol % as in label
# Method: Samples from each formula was incubated at 3 different temperatures (42° C., 52° C. and 62° C.) for 3 hours. Following a 3 hour incubation, the samples were brought to room temperature for enzymatic activity assay.
# Two-tailed paired T-test was performed by to compare each polyol containing treatment with the treatment devoid of polyol. Treatment with probability values (p) less than 5% (0.05) was considered significant.
structure (smiles),measurement,setting,value
"OC[C@@H](O)[C@@H](O)CO [Erythritol, (2R,3S)-Butane-1,2,3,4-tetrol]",% enzymatic activity of DispersinB (Mean),"4° C., freshly made control without polyol = 100%, listed as 1% Erythritol",105%
same,% enzymatic activity of DispersinB (Mean),"4° C., freshly made control without polyol = 100%, listed as 2.5% Erythritol",97%
same,% enzymatic activity of DispersinB (Mean),"4° C., freshly made control without polyol = 100%, listed as 5% Erythritol",101%
same,% enzymatic activity of DispersinB (Mean),"4° C., freshly made control without polyol = 100%, listed as 10% Erythritol",97%
same,% enzymatic activity of DispersinB (Mean),"4° C., freshly made control without polyol = 100%, listed as 15% Erythritol",96%
same,% enzymatic activity of DispersinB (Mean),"4° C., freshly made control without polyol = 100%, listed as 20% Erythritol",104%
same,% enzymatic activity of DispersinB (Mean),"4° C., freshly made control without polyol = 100%, listed as 25% Erythritol",109%
same,% enzymatic activity of DispersinB (Mean),"42° C. for 3 hours, control without polyol = 100%, listed as 1% Erythritol",109* %
same,% enzymatic activity of DispersinB (Mean),"42° C. for 3 hours, control without polyol = 100%, listed as 2.5% Erythritol",107* %
same,% enzymatic activity of DispersinB (Mean),"42° C. for 3 hours, control without polyol = 100%, listed as 5% Erythritol",106* %
same,% enzymatic activity of DispersinB (Mean),"42° C. for 3 hours, control without polyol = 100%, listed as 10% Erythritol",107* %
same,% enzymatic activity of DispersinB (Mean),"42° C. for 3 hours, control without polyol = 100%, listed as 15% Erythritol",119* %
same,% enzymatic activity of DispersinB (Mean),"42° C. for 3 hours, control without polyol = 100%, listed as 20% Erythritol",113* %
same,% enzymatic activity of DispersinB (Mean),"42° C. for 3 hours, control without polyol = 100%, listed as 25% Erythritol",117* %
same,% enzymatic activity of DispersinB (Mean),"52° C. for 3 hours, control without polyol = 100%, listed as 1% Erythritol",6* %
same,% enzymatic activity of DispersinB (Mean),"52° C. for 3 hours, control without polyol = 100%, listed as 2.5% Erythritol",20* %
same,% enzymatic activity of DispersinB (Mean),"52° C. for 3 hours, control without polyol = 100%, listed as 5% Erythritol",33* %
same,% enzymatic activity of DispersinB (Mean),"52° C. for 3 hours, control without polyol = 100%, listed as 10% Erythritol",58* %
same,% enzymatic activity of DispersinB (Mean),"52° C. for 3 hours, control without polyol = 100%, listed as 15% Erythritol",78* %
same,% enzymatic activity of DispersinB (Mean),"52° C. for 3 hours, control without polyol = 100%, listed as 20% Erythritol",95* %
same,% enzymatic activity of DispersinB (Mean),"52° C. for 3 hours, control without polyol = 100%, listed as 25% Erythritol",121* %
same,% enzymatic activity of DispersinB (Mean),"62° C. for 3 hours, control without polyol = 100%, listed as 1% Erythritol",0%
same,% enzymatic activity of DispersinB (Mean),"62° C. for 3 hours, control without polyol = 100%, listed as 2.5% Erythritol",0%
same,% enzymatic activity of DispersinB (Mean),"62° C. for 3 hours, control without polyol = 100%, listed as 5% Erythritol",0%
same,% enzymatic activity of DispersinB (Mean),"62° C. for 3 hours, control without polyol = 100%, listed as 10% Erythritol",0%
same,% enzymatic activity of DispersinB (Mean),"62° C. for 3 hours, control without polyol = 100%, listed as 15% Erythritol",0%
same,% enzymatic activity of DispersinB (Mean),"62° C. for 3 hours, control without polyol = 100%, listed as 20% Erythritol",0%
same,% enzymatic activity of DispersinB (Mean),"62° C. for 3 hours, control without polyol = 100%, listed as 25% Erythritol",20* %
"OC[C@@H](O)[C@@H](O)[C@H](O)[C@H](O)CO[C@H]1O[C@H](CO)[C@@H](O)[C@H](O)[C@H]1O [Isomalt, (2R,3R,4R,5R)-6-[[(2S,3R,4S,5S,6R)-3,4,5-Trihydroxy-6-(hydroxymethyl)-2-tetrahydropyranyl]oxy]hexane-1,2,3,4,5-pentol]",% enzymatic activity of DispersinB (Mean),"4° C., freshly made control without polyol = 100%, listed as 1% Isomalt",105%
same,% enzymatic activity of DispersinB (Mean),"4° C., freshly made control without polyol = 100%, listed as 2.5% Isomalt",105%
same,% enzymatic activity of DispersinB (Mean),"4° C., freshly made control without polyol = 100%, listed as 3% Isomalt",106%
same,% enzymatic activity of DispersinB (Mean),"4° C., freshly made control without polyol = 100%, listed as 5% Isomalt",107%
same,% enzymatic activity of DispersinB (Mean),"4° C., freshly made control without polyol = 100%, listed as 10% Isomalt",106%
same,% enzymatic activity of DispersinB (Mean),"4° C., freshly made control without polyol = 100%, listed as 15% Isomalt",101%
same,% enzymatic activity of DispersinB (Mean),"4° C., freshly made control without polyol = 100%, listed as 20% Isomalt",102%
same,% enzymatic activity of DispersinB (Mean),"42° C. for 3 hours, control without polyol = 100%, listed as 1% Isomalt",102* %
same,% enzymatic activity of DispersinB (Mean),"42° C. for 3 hours, control without polyol = 100%, listed as 2.5% Isomalt",100* %
same,% enzymatic activity of DispersinB (Mean),"42° C. for 3 hours, control without polyol = 100%, listed as 3% Isomalt",100* %
same,% enzymatic activity of DispersinB (Mean),"42° C. for 3 hours, control without polyol = 100%, listed as 5% Isomalt",99* %
same,% enzymatic activity of DispersinB (Mean),"42° C. for 3 hours, control without polyol = 100%, listed as 10% Isomalt",107* %
same,% enzymatic activity of DispersinB (Mean),"42° C. for 3 hours, control without polyol = 100%, listed as 15% Isomalt",106* %
same,% enzymatic activity of DispersinB (Mean),"42° C. for 3 hours, control without polyol = 100%, listed as 20% Isomalt",107* %
same,% enzymatic activity of DispersinB (Mean),"52° C. for 3 hours, control without polyol = 100%, listed as 1% Isomalt",2%
same,% enzymatic activity of DispersinB (Mean),"52° C. for 3 hours, control without polyol = 100%, listed as 2.5% Isomalt",3%
same,% enzymatic activity of DispersinB (Mean),"52° C. for 3 hours, control without polyol = 100%, listed as 3% Isomalt",4* %
same,% enzymatic activity of DispersinB (Mean),"52° C. for 3 hours, control without polyol = 100%, listed as 5% Isomalt",11* %
same,% enzymatic activity of DispersinB (Mean),"52° C. for 3 hours, control without polyol = 100%, listed as 10% Isomalt",37* %
same,% enzymatic activity of DispersinB (Mean),"52° C. for 3 hours, control without polyol = 100%, listed as 15% Isomalt",82* %
same,% enzymatic activity of DispersinB (Mean),"52° C. for 3 hours, control without polyol = 100%, listed as 20% Isomalt",102* %
same,% enzymatic activity of DispersinB (Mean),"62° C. for 3 hours, control without polyol = 100%, listed as 1% Isomalt",0%
same,% enzymatic activity of DispersinB (Mean),"62° C. for 3 hours, control without polyol = 100%, listed as 2.5% Isomalt",0%
same,% enzymatic activity of DispersinB (Mean),"62° C. for 3 hours, control without polyol = 100%, listed as 3% Isomalt",0%
same,% enzymatic activity of DispersinB (Mean),"62° C. for 3 hours, control without polyol = 100%, listed as 5% Isomalt",0%
same,% enzymatic activity of DispersinB (Mean),"62° C. for 3 hours, control without polyol = 100%, listed as 10% Isomalt",0%
same,% enzymatic activity of DispersinB (Mean),"62° C. for 3 hours, control without polyol = 100%, listed as 15% Isomalt",12* %
same,% enzymatic activity of DispersinB (Mean),"62° C. for 3 hours, control without polyol = 100%, listed as 20% Isomalt",6* %
